The subject of one series is A549 cells. The experiment in a line: Wound closure assay, A549. The series is classed as cell-based. Conditions: A549, 10 µM. As for the experimental part: For live-cell analysis of scratch-induced wound closure, 2.5 × 10^4 MDA-MB-231 and A549 cells per well were seeded in collagen G (40 µg/mL) (Biochrom AG, Germany) coated 96-well plates near confluence and allowed to grow overnight in standard medium (DMEM supplemented with 10% FBS and 1% P/S). At confluence, cells were pretreated 2 h with mitomycin (10 µg/mL) (Medac, Germany) to block cell proliferation and washed with standard media. Afterwards, cells were incubated in the presence of inhibitor at the indicated concentrations or DMSO (0.1% vehicle). Subsequently, a defined scratch (wound width between 642–767 µm) was performed in each well using the certified Essen Bioscience automated 96-wound maker^TM (Essen Biosciences, Hertfordshire, UK) for 96 well-plates. The medium was removed and 100 µL standard medium were added to the wells containing either inhibitor or DMSO. The closure of the wounded area was monitored using the IncuCyte ZOOM system by taking images of each well every 2 h over a period of 24 h. The reduction of wound width was determined over time using the IncuCyte ZOOM microscope software 2014A. Data were expressed as percentage of wound closure after 8 h.

The test system of series [1] is shedding of HER2 from the surface of BT474 cells. Description: HER2 shedding inhibition (AlphaLISA soluble HER2). Conditions: Homo sapiens, BT-474, 48 h. The series is classed as cell-based. The protocol: To determine the effect of CID 3117694 on the release of HER2, an AlphaLISA soluble HER2 assay kit was utilized (Perkin Elmer # AL234 C/F). Briefly, 20,000 BT474 (HER2 positive) breast cancer cells were seeded in 200 µL of complete Hybricare media in 96 well plates. After 4 h, media was aspirated and CID 3117694 (3.125–100 µM) and controls (50 µM marimastat and GI 254023X)[11] were added in serum-free media. Cells were incubated for 48 h at 37 °C with 5% CO2 and under a humidified atmosphere. After incubation, 5 µL of supernatant was transferred into white opaque 384 well plate for HER2 AlphaLISA assay.
(Alpha assays give light when donor and acceptor beads are brought close together.)

The target of the next series is T1, ADAM10 (Homo sapiens, UniProt O14672).
T1 construct: purchased R&D Systems 936-AD
T1 sequence (O14672 214-748): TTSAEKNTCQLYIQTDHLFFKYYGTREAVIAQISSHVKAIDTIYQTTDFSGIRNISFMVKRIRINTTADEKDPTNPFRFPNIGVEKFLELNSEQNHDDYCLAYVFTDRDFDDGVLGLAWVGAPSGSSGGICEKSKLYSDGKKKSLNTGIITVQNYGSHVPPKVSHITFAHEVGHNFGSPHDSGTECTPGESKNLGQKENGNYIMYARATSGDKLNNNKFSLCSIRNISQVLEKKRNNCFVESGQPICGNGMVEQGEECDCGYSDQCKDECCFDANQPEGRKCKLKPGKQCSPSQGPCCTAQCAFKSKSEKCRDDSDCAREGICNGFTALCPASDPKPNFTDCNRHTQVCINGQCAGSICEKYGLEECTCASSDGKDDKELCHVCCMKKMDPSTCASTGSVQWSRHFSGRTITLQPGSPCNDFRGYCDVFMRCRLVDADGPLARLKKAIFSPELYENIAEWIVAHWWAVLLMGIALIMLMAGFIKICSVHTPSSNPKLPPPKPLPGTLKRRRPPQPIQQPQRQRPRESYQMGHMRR
Description: ADAM10 kinetic assays, determination of inhibition type and mechanism. The series is classed as biochemical. As for the experimental part:
Since true affinity of time-dependent inhibitors cannot be determined by steady state approaches, in order to determine the true inhibition modality and true affinity of CID 3117694 we performed kinetic assays with the range of glycosylated substrate (0.5–5 [S]/KM) and inhibitor (1.56–50 µM) concentrations in quadruplicate. Reactions were allowed to run for 6 h. Progress curve data were fitted using a non-linear regression model for time-dependent inhibition (Equation 1) using MatLab software.
First, we performed the ADAM10 reaction with glycosylated substrate in the presence of […] CID 3117694 in kinetic format without pre-incubation. Obtained k obs values were plotted versus [I] to determine whether the inhibitor binding conforms to a 1- or 2-step mechanism (Fig. 4A). […] Future studies will address the exact location of this exosite.
In order to determine true inhibition modality and affinity of CID 3117694, kinetic assays were performed with the range of substrate (0.5–5 [S]/KM) and inhibitor concentrations (1.56–50 µM) in quadruplicate. Reactions were allowed to run for 6 h. Progress curve data were fitted using a non-linear regression model for time-dependent inhibition (Equation 1) using MatLab software. [P]=vst+vi−vs/kobs⁎[1−exp(−kobst)]
Obtained k obs values were plotted versus [I] to determine whether the inhibitor binding conforms to a 1- or 2-step mechanism.
To obtain true potency, Equation 3 was solved for K i and K i ′. Resulting ratio of Ki′/Ki termed α (alpha) was used to determine mechanism of inhibition. In order to confirm the true binding modality, k obs was plotted versus [S]/KM. app^Ki=[S]+KM/KM/Ki+[S]/Ki′

The subject of the next series is BT474 cells. Description: Cell toxicity study (CellTiter-Glo), BT474. The series is classed as cell-based. Conditions: 72 h. As for the experimental part: Test compounds were solubilized in 100% DMSO and added to polypropylene 384 well plates (Greiner cat# 781280). 1,250 of BT474 or HEK293 cells were plated in 384-well plates in 8 µL of serum-free media (HybriCare for BT474, EMEM for HEK293). Test compounds and pharmacological assay control (lapatinib) were prepared as 10-point, 1:3 serial dilutions starting at 10 mM, then added to the cells using the pin tool mounted on Biomek NX^P. Plates were incubated for 72 h at 37 °C, 5% CO2 and 95% RH. After incubation, 8 µL of CellTiter-Glo® (Promega cat# G7570) was added to each well, and incubated for 15 min at room temperature. Luminescence was recorded using a Biotek Synergy H4 multimode microplate reader. Viability was expressed as a percentage relative to wells containing media only (0%) and wells containing cells treated with DMSO only (100%). Three parameters were calculated on a per-plate basis: (a) the signal-to-background ratio (S/B); (b) the coefficient for variation [CV; CV = (standard deviation/mean) × 100)] for all compound test wells; and (c) the Z′-factor. IC50 values were calculated by fitting normalized data to sigmoidal log vs. response equation utilizing non-linear regression analysis from GraphPad Prizm 6.
(In general: ATP-based viability assays read luminescence as a measure of living cells.)

Series [2] relates to IL-8-induced migration of primary human neutrophils. Description: Neutrophil migration assay. The series is classed as cell-based. The protocol:
For PBMC or primary human neutrophil chemotaxis assays, transwells with 8 or 5 µm pores were filled with 100 µL of cell suspension (1 × 10^6 cells in 100 µL DMEM + 0.2% BSA). Lower wells were filled with stimulus solution (3 nM CCL2 or 10 µg/mL CXCL8 (IL8) in assay buffer (RPMI + 0.2% BSA). After incubation of PBMCs for 2 h or neutrophils for 45 min, migrated cells were quantified in the lower well. For inhibitor studies, cells were pre-incubated in migration medium for 30 min and subsequently subjected to the migration experiment. Migrated neutrophils or PBMCs were quantified by measurement of endogenous glucuronidase activity as described.

Like-named read-outs stand apart in the source and are kept apart here.

As for `COc1cccc(C(=O)NNC(=O)C(=O)Nc2ccc(C)c(Cl)c2)c1` [CID 3117694], the “effect on wound healing” value with A549 cells was “significantly decreased wound healing”. In series [1], this compound gave an IC50 of 30 ± 2.5 µM. The “ratio of Ki′/Ki, α (alpha)” value on ADAM10 was determined as 21.7. Also, the Ki at ADAM10 (apparent potency at initial velocity, hyperbolic two-step model, read-out: appKi) was 1.36 ± 0.2 µM; at ADAM10 (apparent potency at steady-state velocity, read-out: appKi*) it was 0.33 ± 0.02 µM; at ADAM10 (binding affinity for enzyme-substrate complex, read-out: Ki), 19 µM; on ADAM10 (binding affinity for free enzyme, read-out: Ki), 0.883 µM. Moreover, the inhibition modality entry against ADAM10 (kobs versus [S]/KM and α) is “competitive inhibitor”. Further, in the series on BT474 cells, the “effect on viability of BT474 cells” value is on record as “did not affect viability”. Moreover, the “inhibition of neutrophil migration” value in series [2] is “inhibition of migration to random migration levels”.

By IC50 is commonly meant the concentration that inhibits the measured activity by half. Read a low IC50 as greater potency in that assay.

The values above are taken from publication PMC5431342, “Discovery of an enzyme and substrate selective inhibitor of ADAM10 using an exosite-binding glycosylated substrate” (Scientific Reports, 2016).
